These are literature values, as cited in patent US9155707B2, “Core-shell microspheres” (Agency for Science, Technology and Research, priority 2011, dated 2015).

The structures appear in SMILES notation.

For series [1] the following is noted: reference line in FIG. 10.

In the case of `CCCCN1CCCCC1C(=O)Nc1c(C)cccc1C` (stereo not drawn) [Bupivacaine, bupivacaine], the “toxic limit of drug permissible in the blood plasma” value in series [1] is 4000 ng/mL.

As for `O=c1[nH]cc(F)c(=O)[nH]1` [Fluorouracil (5-FU), Fluorouracil], the “solubility in water” value is “not in water”.

For the compound `O=S1(=O)OC(c2ccc(O)c(Cl)c2)(c2ccc(O)c(Cl)c2)c2ccccc21` [chlorophenol red (CR), chlorophenol red], the “solubility in water” value was “not very soluble in water”.
